Source: ChEMBL document CHEMBL3045953, “Pyrazolo[3,4-d]pyrimidine analogues: synthesis, characterization and their in vitro antiamoebic activity” (Med Chem Res, 2013)

Tested on: Entamoeba histolytica
Assay: Antiamoebic activity against Entamoeba histolytica HM-1:IMSS trophozoite assessed as growth inhibition after 72 hr by microdilution method
Assay type: functional, organism-based
Conditions: not given

| SMILES | IC50 [µM] |
| --- | --- |
| Cc1ccc(S(=O)(=O)n2nc(-c3ccccc3)c3c(N)ncnc32)cc1 | 0.57 |
| Nc1ncnc2c1c(-c1ccccc1)nn2S(=O)(=O)c1ccc([N+](=O)[O-])cc1 | 2.52 |
| CC(=O)Nc1ccc(S(=O)(=O)n2nc(-c3ccccc3)c3c(N)ncnc32)cc1 | 0.68 |
| Nc1ncnc2c1c(-c1ccccc1)nn2S(=O)(=O)c1ccc(Cl)cc1 | 3.23 |
| Nc1ncnc2c1c(-c1ccccc1)nn2S(=O)(=O)c1cc(Cl)ccc1Cl | 2.37 |
| Nc1ncnc2c1c(-c1ccccc1)nn2S(=O)(=O)c1ccc2ccccc2c1 | 3.11 |
| Nc1ncnc2c1c(-c1ccccc1)nn2S(=O)(=O)c1ccccc1 | 4.24 |
| CS(=O)(=O)n1nc(-c2ccccc2)c2c(N)ncnc21 | 5.15 |
| Cc1ccc(-c2cc(-c3cccc(-c4cc(-c5ccc(C)cc5)nc(N5CCCC5)n4)c3)nc(N3CCCC3)n2)cc1 | 0.16 |

Tested on: MCF7
Assay: Cytotoxicity against Homo sapiens (human) MCF-7 cells assessed as decrease in number of viable cells after 48 hr by MTT assay
Assay type: ADME, cell-based
Conditions: MCF7, 48 h

| SMILES | IC50 [µM] |
| --- | --- |
| Cc1ccc(S(=O)(=O)n2nc(-c3ccccc3)c3c(N)ncnc32)cc1 | > 250 |
| CC(=O)Nc1ccc(S(=O)(=O)n2nc(-c3ccccc3)c3c(N)ncnc32)cc1 | > 250 |
| Cc1ncc([N+](=O)[O-])n1CCO [METRONIDAZOLE] | > 250 |
